Test results published in ChEMBL document CHEMBL1156705, “Part 1: Effect of vitamin C on the biological activity of two euryfurylbenzoquinones on TLT, a murine hepatoma cell line” (2008).

Tests used:
Format in all cases: functional
[1] = Induction of apoptosis in mouse TLT cells assessed as effect on caspase 3 activity at 1 ug/ml after 24 hrs by fluorometric assay
[2] = Induction of apoptosis in mouse TLT cells assessed as effect on caspase 3 activity at 50 ug/ml after 24 hrs by fluorometric assay in presence of 2 mM vitamin C
[3] = Cytotoxicity against mouse TLT cells assessed as cytoplasmic LDH release at 50 ug/ml after 24 hrs in presence of 2 mM vitamin C
[4] = Induction of apoptosis in mouse TLT cells assessed as effect on caspase 3 activity at 50 ug/ml after 24 hrs by fluorometric assay
[5] = Induction of apoptosis in mouse TLT cells assessed as effect on caspase 3 activity at 100 ug/ml after 24 hrs by fluorometric assay in presence of 2 mM vitamin C
[6] = Cytotoxicity against mouse TLT cells assessed as cytoplasmic LDH release at 1 ug/ml after 24 hrs
[7] = Cytotoxicity against mouse TLT cells assessed as decrease in intracellular ATP level at 50 ug/ml after 24 hrs by bioluminescence assay relative to control in presence of 2 mM vitamin C; parameters: scale not given: the % may be the effect or the level left
[8] = Cytotoxicity against mouse TLT cells assessed as decrease in intracellular reduced glutathione level at 50 ug/ml after 24 hrs by ortho-phthalaldehyde method relative to control in presence of 2 mM vitamin C; parameters: scale not given: the % may be the effect or the level left
[9] = Induction of apoptosis in mouse TLT cells assessed as effect on caspase 3 activity at 100 ug/ml after 24 hrs by fluorometric assay
[10] = Induction of apoptosis in mouse TLT cells assessed as effect on caspase 3 activity at 1 ug/ml after 24 hrs by fluorometric assay in presence of 2 mM vitamin C
[11] = Cytotoxicity against mouse TLT cells assessed as decrease in intracellular ATP level at 1 to 50 ug/ml after 24 hrs by bioluminescence assay relative to control in presence of 2 mM vitamin C; parameters: scale not given: the % may be the effect or the level left
[12] = Induction of apoptosis in mouse TLT cells assessed as increase in caspase 3 activity at 50 ug/ml after 24 hrs by fluorometric assay relative to basal level
[13] = Cytotoxicity against mouse TLT cells assessed as cytoplasmic LDH release at 50 ug/ml after 24 hrs
[14] = Induction of apoptosis in mouse TLT cells assessed as increase in caspase 3 activity at 50 ug/ml after 24 hrs by fluorometric assay relative to basal level in presence of 2 mM vitamin C
[15] = Cytotoxicity against mouse TLT cells assessed as decrease in intracellular ATP level at 1 to 50 ug/ml after 24 hrs by bioluminescence assay relative to control; parameters: scale not given: the % may be the effect or the level left
[16] = Cytotoxicity against mouse TLT cells assessed as decrease in intracellular reduced glutathione level at 1 to 50 ug/ml after 24 hrs by ortho-phthalaldehyde method relative to control; parameters: scale not given: the % may be the effect or the level left
[17] = Cytotoxicity against mouse TLT cells assessed as decrease in intracellular reduced glutathione level at 1 to 50 ug/ml after 24 hrs by ortho-phthalaldehyde method relative to control in presence of 2 mM vitamin C; parameters: scale not given: the % may be the effect or the level left

| Compound | Activity [1] [mU] | Activity [2] [mU] | Activity [3] [%] | Activity [4] [mU] | Activity [5] [mU] | Activity [6] [%] | Activity [7] [%] | Activity [8] [%] | Activity [9] [mU] | Activity [10] [mU] | Activity [11] [%] | Activity [12] | Activity [13] [%] | Activity [14] | Activity [15] [%] | Activity [16] [%] | Activity [17] [%] |
| --- | --- | --- | --- | --- | --- | --- | --- | --- | --- | --- | --- | --- | --- | --- | --- | --- | --- |
| CC1(C)CCCC2(C)c3coc(C4=C([N+](=O)[O-])C(=O)C=CC4=O)c3CCC12 (centres undefined) | 31.9 | 10.7 | 60 | 27.4 | 1 | 28 | 50 | 25 | 22.5 | 12.8 |  |  |  |  |  |  |  |
| CC1(C)CCCC2(C)c3coc(C4=CC(=O)C=CC4=O)c3CCC12 (centres undefined) | 21.3 | 25.6 | 28 | 37.2 | 57.8 |  |  |  | 51.1 | 15.1 | 40 | 2.5 | 28 | 3.5 | 40 | 60 | 60 |
